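Where inhibition never reached the appropriate level, the endpoint shown equals the highest concentration tested. Otherwise, values were interpolated linearly from a five-concentration, 48-hour dose response in 96-well plates. TGI marks complete inhibition of growth.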
How the values were obtained:
Assay in all cases: inhibition of tumour cell growth, NCI panel, 48 h
786-0 renal = tested on: 786-0 renal
A498 renal = tested on: A498 renal
A549 NSCLC = tested on: A549 NSCLC
ACHN renal = tested on: ACHN renal
BT-549 breast = tested on: BT-549 breast
CAKI-1 renal = tested on: CAKI-1 renal
CCRF-CEM leukemia = tested on: CCRF-CEM leukemia
COLO 205 colon = tested on: COLO 205 colon
DU-145 prostate = tested on: DU-145 prostate
EKVX NSCLC = tested on: EKVX NSCLC
HCC-2998 colon = tested on: HCC-2998 colon
HCT-116 colon = tested on: HCT-116 colon
HCT-15 colon = tested on: HCT-15 colon
HL-60(TB) leukemia = tested on: HL-60(TB) leukemia
HOP-62 NSCLC = tested on: HOP-62 NSCLC
HOP-92 NSCLC = tested on: HOP-92 NSCLC
HT29 colon = tested on: HT29 colon
IGROV1 ovarian = tested on: IGROV1 ovarian
K-562 leukemia = tested on: K-562 leukemia
KM12 colon = tested on: KM12 colon
LOX IMVI melanoma = tested on: LOX IMVI melanoma
M14 melanoma = tested on: M14 melanoma
MALME-3M melanoma = tested on: MALME-3M melanoma
MCF7 breast = tested on: MCF7 breast
MDA-MB-231 breast = tested on: MDA-MB-231 breast
MDA-MB-435 = tested on: MDA-MB-435
MDA-N = tested on: MDA-N
MOLT-4 leukemia = tested on: MOLT-4 leukemia
NCI-H226 lung = tested on: NCI-H226 lung
NCI-H23 lung = tested on: NCI-H23 lung
NCI-H460 lung = tested on: NCI-H460 lung
NCI-H522 lung = tested on: NCI-H522 lung
NCI/ADR-RES ovarian = tested on: NCI/ADR-RES ovarian
OVCAR-3 ovarian = tested on: OVCAR-3 ovarian
OVCAR-4 ovarian = tested on: OVCAR-4 ovarian
OVCAR-5 ovarian = tested on: OVCAR-5 ovarian
OVCAR-8 ovarian = tested on: OVCAR-8 ovarian
PC-3 prostate = tested on: PC-3 prostate
RPMI-8226 leukemia = tested on: RPMI-8226 leukemia
SF-268 CNS = tested on: SF-268 CNS
SF-295 CNS = tested on: SF-295 CNS
SF-539 CNS = tested on: SF-539 CNS
SK-MEL-2 melanoma = tested on: SK-MEL-2 melanoma
SK-MEL-28 melanoma = tested on: SK-MEL-28 melanoma
SK-MEL-5 melanoma = tested on: SK-MEL-5 melanoma
SK-OV-3 ovarian = tested on: SK-OV-3 ovarian
SN12C renal = tested on: SN12C renal
SNB-19 CNS = tested on: SNB-19 CNS
SNB-75 CNS = tested on: SNB-75 CNS
SR leukemia = tested on: SR leukemia
SW-620 colon = tested on: SW-620 colon
T-47D breast = tested on: T-47D breast
TK-10 renal = tested on: TK-10 renal
U251 CNS = tested on: U251 CNS
UACC-257 melanoma = tested on: UACC-257 melanoma
UACC-62 melanoma = tested on: UACC-62 melanoma
UO-31 renal = tested on: UO-31 renal

How did the TGI (786-0 renal) turn out when `COc1c(O)c(OC)c2oc(-c3ccc(O)c(O)c3)c(OC)c(=O)c2c1O` was run?
The TGI was 50.9 µM.

What about the TGI (A498 renal) of the same compound?
The TGI was greater than 100 µM.

What about the TGI (A549 NSCLC) of the same compound?
Its TGI is greater than 100 µM.

And the TGI (ACHN renal)?
Its TGI is greater than 100 µM.

And the TGI (BT-549 breast)?
The TGI was greater than 100 µM.

And the TGI (CAKI-1 renal)?
Its TGI is greater than 100 µM.

And the TGI (CCRF-CEM leukemia)?
The TGI was greater than 100 µM.

And the TGI (COLO 205 colon)?
The TGI was greater than 100 µM.

And the TGI (DU-145 prostate)?
The TGI was 98.8 µM.

What about the TGI (EKVX NSCLC) of the same compound?
Its TGI is 94 µM.

And the TGI (HCC-2998 colon)?
The TGI was 98 µM.

And the TGI (HCT-116 colon)?
Its TGI is greater than 100 µM.

What about the TGI (HCT-15 colon) of the same compound?
The TGI was greater than 100 µM.

What about the TGI (HL-60(TB) leukemia) of the same compound?
Its TGI is 68.7 µM.

What about the TGI (HOP-62 NSCLC) of the same compound?
Its TGI is 43.7 µM.

And the TGI (HOP-92 NSCLC)?
Its TGI is 66 µM.

What about the TGI (HT29 colon) of the same compound?
The TGI was greater than 100 µM.

What about the TGI (IGROV1 ovarian) of the same compound?
The TGI was 25.7 µM.

And the TGI (K-562 leukemia)?
Its TGI is greater than 100 µM.

And the TGI (KM12 colon)?
The TGI was greater than 100 µM.

And the TGI (LOX IMVI melanoma)?
Its TGI is 95.9 µM.

What about the TGI (M14 melanoma) of the same compound?
The TGI was 50.7 µM.

What about the TGI (MALME-3M melanoma) of the same compound?
Its TGI is 68 µM.

What about the TGI (MCF7 breast) of the same compound?
The TGI was 34 µM.

And the TGI (MDA-MB-231 breast)?
The TGI was greater than 100 µM.

What about the TGI (MDA-MB-435) of the same compound?
The TGI was 56.7 µM.

What about the TGI (MDA-N) of the same compound?
Its TGI is greater than 100 µM.

And the TGI (MOLT-4 leukemia)?
The TGI was greater than 100 µM.

What about the TGI (NCI-H226 lung) of the same compound?
The TGI was greater than 100 µM.

What about the TGI (NCI-H23 lung) of the same compound?
Its TGI is greater than 100 µM.

And the TGI (NCI-H460 lung)?
Its TGI is greater than 100 µM.

What about the TGI (NCI-H522 lung) of the same compound?
Its TGI is 33.4 µM.

What about the TGI (NCI/ADR-RES ovarian) of the same compound?
Its TGI is greater than 100 µM.

What about the TGI (OVCAR-3 ovarian) of the same compound?
The TGI was 8.53 µM.

And the TGI (OVCAR-4 ovarian)?
The TGI was greater than 100 µM.

And the TGI (OVCAR-5 ovarian)?
The TGI was greater than 100 µM.

And the TGI (OVCAR-8 ovarian)?
Its TGI is greater than 100 µM.

And the TGI (PC-3 prostate)?
Its TGI is greater than 100 µM.

What about the TGI (RPMI-8226 leukemia) of the same compound?
Its TGI is greater than 100 µM.

What about the TGI (SF-268 CNS) of the same compound?
Its TGI is 10.3 µM.

What about the TGI (SF-295 CNS) of the same compound?
Its TGI is greater than 100 µM.

And the TGI (SF-539 CNS)?
Its TGI is greater than 100 µM.

And the TGI (SK-MEL-2 melanoma)?
Its TGI is 28.3 µM.

And the TGI (SK-MEL-28 melanoma)?
Its TGI is greater than 100 µM.

What about the TGI (SK-MEL-5 melanoma) of the same compound?
Its TGI is 50.8 µM.

And the TGI (SK-OV-3 ovarian)?
Its TGI is 54.4 µM.

What about the TGI (SN12C renal) of the same compound?
Its TGI is greater than 100 µM.

What about the TGI (SNB-19 CNS) of the same compound?
The TGI was greater than 100 µM.

What about the TGI (SNB-75 CNS) of the same compound?
Its TGI is 11.5 µM.

What about the TGI (SR leukemia) of the same compound?
Its TGI is greater than 100 µM.

And the TGI (SW-620 colon)?
Its TGI is greater than 100 µM.

What about the TGI (T-47D breast) of the same compound?
The TGI was 33 µM.

What about the TGI (TK-10 renal) of the same compound?
The TGI was 99.5 µM.

What about the TGI (U251 CNS) of the same compound?
Its TGI is 78.1 µM.

What about the TGI (UACC-257 melanoma) of the same compound?
Its TGI is greater than 100 µM.

What about the TGI (UACC-62 melanoma) of the same compound?
The TGI was 47.8 µM.

And the TGI (UO-31 renal)?
The TGI was 89.8 µM.
